From article PMC6092981 (Bioinorganic Chemistry and Applications, 2018) come the findings set out here.

Where a name gives a salt, the structure may show the parent alone. Where a SMILES comes first, the peptide text is derived from it. Where no end group is shown, it is not given here. The star is where a group is joined. Cbz = O=C(OCc1ccccc1)*; CH2F = FC*

The test system of assay [1] is Jurkat cells. The assay can be described thus: MTT assay of Jurkat cells in the presence of caspase, necroptosis and necrosis inhibitors. The class given is cell-based, human. To be noted: Z-VAD-FMK 15 µM, 24 h, 37°C; for inhibition of cell death induced by 5: necrostatin-1 30 µM, IM-54 10 µM, 1 h pre-incubation, 5 75 µM, MTT.
Method: Jurkat cells (1.0 × 10^5 cells/mL) were incubated in 10% FCS RPMI 1640 medium (MTG-free) containing a solution Z-VAD-fmk (15 µM)/necrostatin-1 (30 µM)/IM-54 (10 µM)/(under 5% CO2 at 37°C for 1 h in 96-well plates (BD Falcon). Then, Ir complexes (75 µM) were added and incubated under 5% CO2 at 37°C for 24 h, and then 0.5% MTT reagent in PBS buffer (10 µL) was added to the cells and incubated under 5% CO2 at 37°C for 4 h. A formazan lysis solution (10% SDS in 0.01 N HCl) (100 µL) was added, and the resulting solution incubated overnight under the same conditions, followed by measurement of absorbance at 570 nm with a microplate reader (Bio-Rad).
Assay [2] concerns Jurkat cells. Put plainly: PI staining microscopy of Jurkat cells with 5 in the presence of inhibitors. The format is cell-based, human. The following applies: nicardipine 50 µM, verapamil 20 µM, 37°C 1 h, then 5 (35 µM) 24 h. The method, then: The cells were then washed twice with ice-cold PBS containing 0.5% FCS and 0.1% NaN3 and incubated with PI in PBS at room temperature for 10–15 min.

For assay [3], the target named is DR5 (immobilised on the QCM sensor chip) (UniProt O14763 56-440). Put plainly: 27 MHz quartz crystal microbalance (QCM); DR5 immobilised by EDC/NHS on a 3,3'-dithiodipropionic acid layer on the Au electrode, blocked with ethanolamine; analytes added in PBS, 25°C; apparent constants from the decrease in frequency, 1:1 complexation assumed, Kd = 1/Kapp. The following applies: both partners purified.

Turning to `CCCCCNC1=C(c2cn(C)c3ccccc23)C(=O)N(C)C1=O` [IM-54], the “inhibition of cell death induced by 5” value in assay [1] is “negligibly inhibited”.

Turning to `CN1C(=O)C(Cc2c[nH]c3ccccc23)NC1=S` (stereo not shown) [Necrostatin-1], the “inhibition of cell death induced by 5” value in assay [1] is given as “negligibly inhibited”.

Regarding `COC(=O)C[C@H](NC(=O)[C@H](C)NC(=O)[C@@H](NC(=O)OCc1ccccc1)C(C)C)C(=O)CF` [Z-VAD-FMK, Z-Val-Ala-Asp(OMe) fluoromethylketone] (Cbz-Val-Ala-Asp(OMe)-CH2F), in assay [1], the “inhibition of cell death induced by 5” value is given as “negligibly inhibited”. The “inhibition of TRAIL-induced cell death” value in assay [1] (TRAIL 150 ng/mL, MTT and flow cytometry (PI)) is “almost completely”.

Consider `COC(=O)C1=C(C)NC(C)=C(C(=O)OCCN(C)Cc2ccccc2)C1c1cccc([N+](=O)[O-])c1` (stereo not shown) [nicardipine, nicardipine hydrochloride], for which the “inhibition of cell death induced by 5” value in assay [2] was “considerably inhibited”.

B1: Ir complex 2c (contains a KKGG peptide) (other)
peptide: KKGG
modifications: also: joined to a cyclometalated Ir(III) complex
notes: cationic peptide H2N-KKGG- on the Ir complex
In the case of B1, in assay [3], the Ka was under 10000 M⁻¹ and the Kd is over 100 µM.
